# Laboratory results taken from patent US20210393623A1 (Jacobio Pharmaceuticals Co., Ltd., priority 2018, published 2021).
# Target: T1, SHP2 (Homo sapiens, UniProt Q06124)
# T1 sequence (Q06124 1-593): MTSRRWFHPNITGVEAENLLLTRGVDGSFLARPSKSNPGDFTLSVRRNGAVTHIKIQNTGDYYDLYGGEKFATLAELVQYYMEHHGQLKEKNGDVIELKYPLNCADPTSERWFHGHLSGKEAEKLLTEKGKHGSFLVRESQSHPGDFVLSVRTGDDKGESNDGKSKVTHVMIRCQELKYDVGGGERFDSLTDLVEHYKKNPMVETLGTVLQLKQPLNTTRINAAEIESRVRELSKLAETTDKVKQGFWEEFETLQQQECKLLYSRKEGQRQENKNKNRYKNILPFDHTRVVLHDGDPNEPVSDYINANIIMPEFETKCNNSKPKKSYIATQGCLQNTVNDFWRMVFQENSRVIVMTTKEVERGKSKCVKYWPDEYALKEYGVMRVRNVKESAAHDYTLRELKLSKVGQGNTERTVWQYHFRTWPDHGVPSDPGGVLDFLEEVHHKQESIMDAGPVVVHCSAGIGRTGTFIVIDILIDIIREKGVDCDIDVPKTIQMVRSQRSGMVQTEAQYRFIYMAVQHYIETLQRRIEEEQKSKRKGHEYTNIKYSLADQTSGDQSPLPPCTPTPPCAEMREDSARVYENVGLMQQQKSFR
# Assay: Phosphatase Assay (Single Dose Inhibition)
# Format: biochemical
# Details: compound at 0.02 μM (20nM); DiFMUP substrate 12 μM; SHP2 0.5 nM activated with dPEG8 peptide; DMSO control set to 100%; triplicate
# Procedure: Phosphatase Assay (Single Dose Inhibition) Assay Protocol: For single dose inhibition assays using 6,8-difluoro-4-methylumbelliferyl phosphate (DiFMUP) as a substrate, SHP2 samples (diluted to 0.5 nM in reaction buffer) were incubated with dPEG8 peptide for 30 min in reaction buffer[60 mM 3,3-dimethyl glutarate (pH7.2), 75 mM NaCl, 75 mM KCl, and 1 mM EDTA, 0.05% Tween 20, 2mM dithiothreitol (DTT) ] to active the PTP. DMSO [0.5% (v/v)] or compounds (20nM) were added to the mixture and incubated for 30 min at room temperature. Reactions were initiated by the addition of DiFMUP (12 μM; total reaction volume of 100 μL), and the fluorescence (excitation at 340 nm, emission at 450 nm) of the resulting solutions was measured on a 2104-0020 EnVision Xcite Multilabel Reader (PerkinElmer) after 30min. The experiment is carried out in triplicate. The value for the control sample (DMSO) was set to 100%, and the values for the compound-treated samples were expressed as activity relative to the control sample.
row,SMILES,inhibition at 0.02 µM
1,"N#Cc1nc(Sc2cccc(Cl)c2Cl)c(N)nc1N1CCC2(CC1)Cc1ncccc1[C@H]2N [Example 30, (S)-5-amino-3-(5-amino-5,7-dihydrospiro[cyclopenta[b]pyridine-6,4′-piperidin]-1′-yl)-6-((2,3-dichlorophenyl)thio)pyrazine-2-carbonitrile]",80%
2,"Cc1nc(N2CCC3(CC2)Cc2ncccc2[C@H]3N)c(Br)nc1-c1cccc(Cl)c1Cl [Example 25, (S)-1′-(3-bromo-5-(2,3-dichlorophenyl)-6-methylpyrazin-2-yl)-5,7-dihydrospiro[cyclopenta[b]pyridine-6,4′-piperidin]-5-amine]",78%
3,"CCOC(=O)c1nc(Sc2ccnc(N)c2Cl)c(C)nc1N1CCC2(CC1)Cc1ccccc1[C@H]2N [Example 5, ethyl (S)-3-(1-amino-1,3-dihydrospiro[indene-2,4′-piperidin]-1′-yl)-6-((2-amino-3-chloropyridin-4-yl)thio)-5-methylpyrazine-2-carboxylate]",84%
4,"Nc1nccc(Sc2ccc(N3CCC4(CC3)Cc3ncccc3[C@H]4N)cn2)c1Cl [Example 33, (S)-1′-(6-((2-amino-3-chloropyridin-4-yl)thio)pyridin-3-yl)-5,7-dihydrospiro[cyclopenta[b]pyridine-6,4′-piperidin]-5-amine]",70%
